Literature values as cited in patent US20220370477A1, “Solid Oral Dosage Forms Of Dexamethasone” (Jubilant Generics Limited, priority 2021, published 2022).
Entries after “also recorded” stand apart in the source; their conditions may differ. Read-outs that look alike come from different tables or passages of the source.

In the case of `C[C@@H]1C[C@H]2[C@@H]3CCC4=CC(=O)C=C[C@]4(C)[C@@]3(F)[C@@H](O)C[C@]2(C)[C@@]1(O)C(=O)CO` [Dexamethasone, 9-fluoro-11β,17,21trihydroxy-16α-methylpregna-1,4-diene-3 ,20-dione], the Solubility (in acetone) is given as “sparingly soluble”, the Solubility (in dichloromethane) is given as “slightly soluble” and the Solubility (in ethanol) is given as “sparingly soluble”. The Solubility (in methanol) was “sparingly soluble” and the Solubility (in water) was “practically insoluble; also recorded: poorly water-soluble”.
